According to patent publication US20030191323A1, “Hypoglycemic agent” (Ajinomoto Co., Inc., priority 2000, published 2003):

Tests used:
[1] = test system: Rat skeletal muscle cell strain L6 cells; assay: Effect of accelerating the glucose uptake in cultured skeletal muscle cells ([3H]-2-deoxyglucose uptake); type: cell-based; conditions: 10 min, 10 μM compound, cultured overnight, 2DG uptake in L6 myotubes, 37° C. 10 minutes, compared with the control group
Procedure: Effect of accelerating the glucose uptake in cultured skeletal muscle cells: Method: Rat skeletal muscle cell strain “L6 cells” in a confluent state was cultured in DME medium containing 2% of fetal calf serum for one week to differentiate into myotubes. The medium was replaced with the DME medium containing a compound synthesized in each of the above Reference Examples. After culturing overnight followed by the thorough washing with HEPES buffer solution, an HEPES buffer solution containing 37 kBq/ml of 10 μM [3H]-2-deoxyglucose (2DG) was added thereto. After the culture at 37° C. for 10 minutes, the radioactivity of 2DG transmigrated into the cells was determined. The effect (%) of each compound on 2DG uptake was determined as compared with that in the control group.

[2] = test system: non-insulin-dependent diabetes model mice (KK mice); assay: Hypoglycemic effect on non-insulin-dependent diabetes model mice (KK mice); type: in vivo; conditions: Mus musculus, 168 h; 30 mg/kg twice a day for one week, KK mice 8 weeks old; fasted overnight; calculated on the basis of blood glucose level (100) in the control group
Procedure: Hypoglycemic Effect on Non-Insulin-Dependent Diabetes Model Mice (KK Mice)
Method: A compound (30 mg/kg) was administered to non-insulin-dependent diabetes model mice (8 weeks old) twice a day for one week. After final administration, the mice were fasted overnight and then the blood glucose concentration of each mouse was determined. The hypoglycemic effect of the compound was calculated on the basis of the blood glucose level (100) in the control group.

SMILES | activity at 10 µM [1] | melting point | inhibition in vivo at 30 mg/kg [2]
CCCCCC(=O)NS(=O)(=O)c1ccccc1NC(=O)c1ccc(C#Cc2ccccc2)cc1 [compound 49, N-[2-(4-Phenylethynylbenzamido)benzenesulfonyl]hexanamide] | 212% | 175 to 176 °C | 10.3%
CCCSCC(=O)NS(=O)(=O)c1ccccc1NC(=O)c1ccc(C#Cc2ccccc2)cc1 [compound 58, 4-Phenylethynyl-N-(2-(2-propylthioacetylamino)sulfonylphenyl]benzamide] | – | 186 to 188 °C | 22.7%
CCCCCC(=O)NS(=O)(=O)c1ccccc1NC(=O)c1ccc(C#Cc2cccc(C(F)(F)F)c2)cc1 [compound 60, 4-(3-Trifluoromethyl)phenylethynyl-N-(2-hexanoylaminosulfonylphenyl)benzamide] | 246% | 194 to 196 °C | 51.1%
CC(=O)CCCC(=O)NS(=O)(=O)c1ccccc1NC(=O)c1ccc(C#Cc2cccc(C(F)(F)F)c2)cc1 [compound 61, 4-(3-Trifluoromethyl)phenylethynyl-N-(2-(5-ketohexanoylamino)sulfonylphenyl)benzamide] | – | 169 to 171 °C | 65.7%
CCCOCC(=O)NS(=O)(=O)c1ccccc1NC(=O)c1ccc(C#Cc2cccc(C(F)(F)F)c2)cc1 [compound 62, 4-(3-Trifluoromethyl)phenylethynyl-N-(2-(2-propyloxyacetylamino)sulfonylphenyl)benzamide] | – | 175 to 177 °C | 60.9%
CCCCCC(=O)NS(=O)(=O)c1ccccc1NC(=O)c1ccc(C#Cc2ccc(C(F)(F)F)cc2)cc1 [compound 64, 4-(4-Trifluoromethyl)phenylethynyl-N-(2-hexanoylaminosulfonylphenyl)benzamide] | 204% | 210 to 212 °C | 34.5%
CCCCCC(=O)NS(=O)(=O)c1ccccc1NC(=O)c1ccc(C#Cc2ccc(OC(F)(F)F)cc2)cc1 [compound 66, 4-(4-Trifluoromethoxyl)phenylethynyl-N-(2-hexanoylaminosulfonylphenyl)benzamide] | 94% | 197 to 199 °C | 28.2%
CC(=O)CCCC(=O)NS(=O)(=O)c1ccccc1NC(=O)c1ccc(C#Cc2ccc(OC(F)(F)F)cc2)cc1 [compound 67, 4-(4-Trifluoromethoxyl)phenylethynyl-N-(2-(5-ketohexanoylamino)sulfonylphenyl)benzamide] | – | 204 to 205 °C | 40.2%
CCCCCC(=O)NS(=O)(=O)c1ccccc1NC(=O)c1ccc(C#Cc2ccc(F)cc2)cc1 [compound 69, 4-(4-Fluoro)phenylethynyl-N-(2-hexanoylaminosulfonylphenyl)benzamide] | 240% | 183 to 186 °C | 27.7%
CC(=O)CCCC(=O)NS(=O)(=O)c1ccccc1NC(=O)c1ccc(C#Cc2ccc(F)cc2)cc1 [compound 70, 4-(4-Fluoro)phenylethynyl-N-(2-(5-ketohexanoylamino)sulfonylphenyl)benzamide] | – | 179 to 181 °C | 30.5%
CCCCCC(=O)NS(=O)(=O)c1ccccc1NC(=O)c1ccc(C#Cc2cccc(F)c2)cc1 [compound 72, 4-(3-Fluoro)phenylethynyl-N-(2-hexanoylaminosulfonylphenyl)benzamide] | 279% | 183 to 186 °C | 9.2%
